Measured values reported in US10952999B2, “Inhibitor of cyclin-dependent kinase CDK9” (GENFLEET THERAPEUTICS (SHANGHAI) INC., priority 2017, dated 2021).

Tests used:
Assay in all cases: Enzyme assay for inhibition of CDK protein in vitro (Z-LYTE)
Format in all cases: biochemical
CDK9/cyclin T1 = biological target: T1, CDK9/cyclin T1 (Homo sapiens, UniProt P50750)
T1 construct: purchased Invitrogen, USA
Method: (§1) Compounds 1 and 14 diluted in DMSO were mixed with detected CDK protein (Invitrogen, USA) respectively, incubated at room temperature for 30 minutes; and then mixed with Kinase/Z-LYTE™ Peptide Substrate Mixture (Invitrogen, USA) and 4×ATP. The mixed system was transferred to a 384-well white opaque plate to react for 1 hour at room temperature; 5 μL of Development Solution (Invitrogen, USA) was added to react at room temperature for 1 hour, and finally Stop Reagent (Invitrogen, USA) was added to terminate the reaction and MD SpectraMax I3× microplate reader (Molecular Devices, USA) was used to read fluorescence values.

CDK8/cyclin C = biological target: T2, CDK8/cyclin C (Homo sapiens, UniProt P49336)
T2 construct: purchased Invitrogen, USA
T2 sequence (P49336 whole entry): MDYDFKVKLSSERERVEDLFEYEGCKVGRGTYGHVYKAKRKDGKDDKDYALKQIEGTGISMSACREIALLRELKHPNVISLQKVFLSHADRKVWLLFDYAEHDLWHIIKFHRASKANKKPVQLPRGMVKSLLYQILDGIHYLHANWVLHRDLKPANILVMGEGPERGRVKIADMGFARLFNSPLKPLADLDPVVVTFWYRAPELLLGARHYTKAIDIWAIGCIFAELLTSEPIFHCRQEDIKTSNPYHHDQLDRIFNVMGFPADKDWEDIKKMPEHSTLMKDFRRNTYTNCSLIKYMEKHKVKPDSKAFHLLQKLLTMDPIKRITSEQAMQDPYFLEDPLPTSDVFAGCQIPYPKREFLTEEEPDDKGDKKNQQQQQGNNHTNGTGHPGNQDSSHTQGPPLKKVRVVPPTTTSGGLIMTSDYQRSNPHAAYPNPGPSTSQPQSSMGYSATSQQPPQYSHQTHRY
T2 sequence (P24863 whole entry partner): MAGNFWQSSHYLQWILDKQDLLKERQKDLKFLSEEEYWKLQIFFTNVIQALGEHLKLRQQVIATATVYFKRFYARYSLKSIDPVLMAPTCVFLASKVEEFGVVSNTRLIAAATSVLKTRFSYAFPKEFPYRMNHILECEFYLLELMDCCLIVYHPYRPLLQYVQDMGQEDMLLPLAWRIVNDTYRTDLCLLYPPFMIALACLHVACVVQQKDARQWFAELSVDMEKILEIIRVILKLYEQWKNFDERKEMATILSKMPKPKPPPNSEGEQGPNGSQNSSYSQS
Method: as §1

CDK16/cyclin Y = biological target: T3, CDK16/cyclin Y (Homo sapiens, UniProt Q00536)
T3 construct: purchased Invitrogen, USA
T3 sequence (Q00536 whole entry): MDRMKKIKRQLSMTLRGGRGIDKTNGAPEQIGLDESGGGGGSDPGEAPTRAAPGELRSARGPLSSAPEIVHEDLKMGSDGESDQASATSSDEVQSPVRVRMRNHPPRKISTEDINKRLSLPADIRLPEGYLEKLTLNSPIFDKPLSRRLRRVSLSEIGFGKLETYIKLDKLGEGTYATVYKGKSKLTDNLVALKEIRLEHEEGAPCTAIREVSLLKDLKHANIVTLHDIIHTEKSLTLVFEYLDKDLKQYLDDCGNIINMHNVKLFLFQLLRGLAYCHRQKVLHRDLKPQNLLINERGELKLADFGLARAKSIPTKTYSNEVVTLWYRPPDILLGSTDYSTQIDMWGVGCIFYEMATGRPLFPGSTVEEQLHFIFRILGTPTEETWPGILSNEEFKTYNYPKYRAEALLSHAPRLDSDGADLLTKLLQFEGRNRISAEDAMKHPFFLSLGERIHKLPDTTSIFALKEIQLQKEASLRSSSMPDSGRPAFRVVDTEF
T3 sequence (Q8ND76 whole entry partner): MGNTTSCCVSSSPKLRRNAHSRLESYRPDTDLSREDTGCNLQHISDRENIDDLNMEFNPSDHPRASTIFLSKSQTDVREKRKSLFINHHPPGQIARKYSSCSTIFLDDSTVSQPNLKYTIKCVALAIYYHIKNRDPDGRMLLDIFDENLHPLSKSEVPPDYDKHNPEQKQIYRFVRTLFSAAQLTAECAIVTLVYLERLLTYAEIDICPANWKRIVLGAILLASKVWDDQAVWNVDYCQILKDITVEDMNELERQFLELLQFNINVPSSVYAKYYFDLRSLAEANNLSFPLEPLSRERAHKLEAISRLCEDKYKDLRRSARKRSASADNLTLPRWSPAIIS
Method: as §1

CDK2/cyclin A = biological target: T4, CDK2/cyclin A (Homo sapiens, UniProt P24941)
T4 construct: purchased Invitrogen, USA
Method: as §1

CDK14/cyclin Y = biological target: T5, CDK14/cyclin Y (Homo sapiens, UniProt O94921)
T5 construct: purchased Invitrogen, USA
T5 sequence (O94921 whole entry): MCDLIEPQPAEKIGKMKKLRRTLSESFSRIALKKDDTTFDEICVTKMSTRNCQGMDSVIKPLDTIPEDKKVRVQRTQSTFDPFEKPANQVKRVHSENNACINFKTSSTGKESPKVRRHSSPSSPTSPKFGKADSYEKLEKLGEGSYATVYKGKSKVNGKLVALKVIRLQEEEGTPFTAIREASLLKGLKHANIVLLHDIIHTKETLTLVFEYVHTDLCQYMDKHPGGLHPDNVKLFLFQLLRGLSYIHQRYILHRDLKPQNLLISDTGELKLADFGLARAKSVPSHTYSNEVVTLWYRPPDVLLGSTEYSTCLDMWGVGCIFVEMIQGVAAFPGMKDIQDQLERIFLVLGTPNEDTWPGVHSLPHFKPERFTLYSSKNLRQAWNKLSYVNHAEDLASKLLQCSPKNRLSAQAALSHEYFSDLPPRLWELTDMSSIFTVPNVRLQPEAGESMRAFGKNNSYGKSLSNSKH
T5 sequence (Q8ND76 whole entry partner): as the sequence (Q8ND76 whole entry partner) above
Method: as §1

CDK7/cyclin HMNAT1 = biological target: T6, CDK7/cyclin HMNAT1 (Homo sapiens, UniProt P50613)
T6 construct: purchased Invitrogen, USA
Method: as §1

CDK5/p25 = biological target: T7, CDK5/p25 (Homo sapiens, UniProt Q00535)
T7 construct: purchased Invitrogen, USA
T7 sequence (Q00535 whole entry): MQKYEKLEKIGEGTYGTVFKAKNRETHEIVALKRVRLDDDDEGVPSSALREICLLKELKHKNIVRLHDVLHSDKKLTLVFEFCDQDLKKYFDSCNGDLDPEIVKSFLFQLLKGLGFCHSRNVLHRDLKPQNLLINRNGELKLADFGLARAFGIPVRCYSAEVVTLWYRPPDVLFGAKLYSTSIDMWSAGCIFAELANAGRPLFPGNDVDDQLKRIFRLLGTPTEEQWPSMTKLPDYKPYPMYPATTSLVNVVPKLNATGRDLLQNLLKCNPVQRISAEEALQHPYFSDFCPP
T7 sequence (Q15078 99-307 partner limits assumed): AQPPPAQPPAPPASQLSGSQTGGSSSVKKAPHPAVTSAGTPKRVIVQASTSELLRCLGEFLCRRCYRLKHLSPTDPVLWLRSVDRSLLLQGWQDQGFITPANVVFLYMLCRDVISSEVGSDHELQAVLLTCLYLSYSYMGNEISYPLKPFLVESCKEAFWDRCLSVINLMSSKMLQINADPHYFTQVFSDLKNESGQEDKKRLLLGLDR
Method: as §1

CDK3/cyclin E1 = biological target: T8, CDK3/cyclin E1 (Homo sapiens, UniProt Q00526)
T8 construct: purchased Invitrogen, USA
T8 sequence (Q00526 whole entry): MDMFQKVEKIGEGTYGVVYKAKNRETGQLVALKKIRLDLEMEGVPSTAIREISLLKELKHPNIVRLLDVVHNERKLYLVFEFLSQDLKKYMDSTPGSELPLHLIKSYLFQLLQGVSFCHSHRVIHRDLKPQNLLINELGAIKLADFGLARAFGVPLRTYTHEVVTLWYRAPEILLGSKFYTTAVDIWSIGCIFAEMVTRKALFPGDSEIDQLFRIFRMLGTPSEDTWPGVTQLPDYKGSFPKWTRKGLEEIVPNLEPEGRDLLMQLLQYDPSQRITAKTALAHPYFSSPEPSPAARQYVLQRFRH
T8 sequence (P24864 whole entry partner): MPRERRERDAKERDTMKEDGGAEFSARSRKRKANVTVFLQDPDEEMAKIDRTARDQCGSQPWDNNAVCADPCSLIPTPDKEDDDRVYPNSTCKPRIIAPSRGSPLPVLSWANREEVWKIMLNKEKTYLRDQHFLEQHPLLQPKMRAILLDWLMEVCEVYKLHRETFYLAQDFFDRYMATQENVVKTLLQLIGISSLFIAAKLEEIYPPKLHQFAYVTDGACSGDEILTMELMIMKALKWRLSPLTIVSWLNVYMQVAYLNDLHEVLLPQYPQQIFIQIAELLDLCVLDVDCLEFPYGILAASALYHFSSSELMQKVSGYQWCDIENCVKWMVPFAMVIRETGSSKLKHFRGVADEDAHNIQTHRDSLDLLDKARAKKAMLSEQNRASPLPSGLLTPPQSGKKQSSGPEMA
Method: as §1

CDK1/cyclin B = biological target: T9, CDK1/cyclin B (Homo sapiens, UniProt P06493)
T9 construct: purchased Invitrogen, USA
Method: as §1

CDK11(non-active) = biological target: T10, CDK11(non-active) (Homo sapiens, UniProt Q9BWU1)
T10 construct: purchased Invitrogen, USA
T10 sequence (Q9BWU1 whole entry): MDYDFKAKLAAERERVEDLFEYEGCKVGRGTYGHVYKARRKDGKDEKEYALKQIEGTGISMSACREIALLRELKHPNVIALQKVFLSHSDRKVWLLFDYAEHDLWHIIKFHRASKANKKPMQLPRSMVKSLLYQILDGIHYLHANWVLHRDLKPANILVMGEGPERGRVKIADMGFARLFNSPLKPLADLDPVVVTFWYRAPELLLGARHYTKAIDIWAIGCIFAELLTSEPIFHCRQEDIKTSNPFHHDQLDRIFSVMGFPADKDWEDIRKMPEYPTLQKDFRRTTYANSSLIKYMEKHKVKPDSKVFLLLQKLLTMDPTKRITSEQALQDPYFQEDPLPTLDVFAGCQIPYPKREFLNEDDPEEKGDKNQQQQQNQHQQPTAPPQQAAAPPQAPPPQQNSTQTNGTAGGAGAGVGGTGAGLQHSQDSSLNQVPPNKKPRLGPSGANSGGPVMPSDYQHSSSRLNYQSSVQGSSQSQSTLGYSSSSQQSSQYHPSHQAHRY
Method: as §1

T1 sequence (P50750 whole entry): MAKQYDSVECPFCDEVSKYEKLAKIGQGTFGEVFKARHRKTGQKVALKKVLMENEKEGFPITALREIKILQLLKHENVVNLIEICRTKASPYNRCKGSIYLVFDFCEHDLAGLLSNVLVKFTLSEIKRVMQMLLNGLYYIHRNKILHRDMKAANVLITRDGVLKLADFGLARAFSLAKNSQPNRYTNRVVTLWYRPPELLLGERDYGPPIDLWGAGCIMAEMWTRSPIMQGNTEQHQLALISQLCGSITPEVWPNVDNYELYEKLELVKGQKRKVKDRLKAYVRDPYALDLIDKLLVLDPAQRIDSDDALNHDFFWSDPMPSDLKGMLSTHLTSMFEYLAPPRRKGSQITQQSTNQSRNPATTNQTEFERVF
T1 sequence (O60563 whole entry partner): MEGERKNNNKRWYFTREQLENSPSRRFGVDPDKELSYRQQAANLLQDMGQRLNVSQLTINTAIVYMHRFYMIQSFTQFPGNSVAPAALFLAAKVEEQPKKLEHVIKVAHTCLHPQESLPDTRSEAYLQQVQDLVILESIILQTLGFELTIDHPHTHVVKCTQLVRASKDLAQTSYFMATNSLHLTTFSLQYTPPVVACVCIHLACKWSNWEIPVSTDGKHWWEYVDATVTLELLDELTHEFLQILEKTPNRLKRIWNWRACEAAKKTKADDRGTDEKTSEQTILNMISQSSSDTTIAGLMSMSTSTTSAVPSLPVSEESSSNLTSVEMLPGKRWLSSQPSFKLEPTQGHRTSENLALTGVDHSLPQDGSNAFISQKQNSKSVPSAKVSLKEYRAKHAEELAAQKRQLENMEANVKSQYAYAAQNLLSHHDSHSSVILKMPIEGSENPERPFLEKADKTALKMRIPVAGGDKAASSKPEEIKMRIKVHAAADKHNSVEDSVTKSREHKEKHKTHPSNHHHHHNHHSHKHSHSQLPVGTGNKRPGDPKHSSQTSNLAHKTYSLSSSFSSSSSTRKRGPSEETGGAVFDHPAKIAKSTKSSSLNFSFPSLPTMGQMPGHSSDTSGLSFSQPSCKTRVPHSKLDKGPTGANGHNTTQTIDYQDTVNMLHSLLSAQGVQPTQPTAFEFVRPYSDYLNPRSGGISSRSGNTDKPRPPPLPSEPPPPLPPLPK

IC50 (CDK9/cyclin T1): 0.000928 µM
IC50 (CDK8/cyclin C): > 10 µM
IC50 (CDK16/cyclin Y): 0.195 µM
IC50 (CDK2/cyclin A): 6.85 µM
IC50 (CDK14/cyclin Y): 2.71 µM
IC50 (CDK7/cyclin HMNAT1): 3.7 µM
IC50 (CDK5/p25): 6.95 µM
IC50 (CDK3/cyclin E1): > 10 µM
IC50 (CDK1/cyclin B): 5.41 µM
IC50 (CDK11(non-active)): > 10 µM
SMILES: COC[C@@H](C)N[C@H]1CC[C@H](Nc2cc(-c3csc(NCC4(C#N)CCOCC4)n3)c(Cl)cn2)CC1 [Compound 1, 4-(((4-(5-chloro-2-(((1R,4r)-4-(((R)-1-methoxypropyl-2-yl)amino)cyclohexyl)amino)pyridin-4-yl)thiazol-2-yl)amino)methyl)tetrahydro-2H-pyran-4-carbonitrile]
